The values that follow are results of earlier work, collected in PubChem BioAssay AID1259410 (Chemical Carcinogenesis Research Information System (CCRIS), 2018).

The series has as its system rodent tumor promotion studies, tumor incidence. As to the kind of experiment: CCRIS tumor promotion studies. An excerpt:
The CCRIS database contains chemical records with carcinogenicity, mutagenicity, tumor promotion, and tumor inhibition test results. It was developed by the National Cancer Institute (NCI). Data are derived from studies cited in primary journals, current awareness tools, NCI reports, and other sources. Test results have been reviewed by experts in carcinogenesis and mutagenesis.
CCRIS provides historical information from the years 1985 - 2011. It is no longer updated.
This is an archive assay for CCRIS tumor promotion studies.

Regarding `Cc1cc(C(C)(C)C)c(O)c(C(C)(C)C)c1`, the outcome runs as follows: (Carcinogen: 2-(ACETYLAMINO)FLUORINE, Doses [Carcinogen]: 200 PPM IN DIET FOR 8 WK, Doses [Promoter]: 300, 1000, 3000, 6000 PPM IN DIET FOR 22 WK AFTER INITIATION FOR 8 WK, Doses [Promoter]: 300, 1000, 3000, 6000 PPM IN DIET FOR 22 WK AFTER INITIATION FOR 8 WK, Route [Carcinogen]: ORAL, Route [Promoter]: ORAL, Species: RAT, Strain/Sex: F344/MALE) “liver: neoplastic nodule, hepatocellular carcinoma”; (Carcinogen: 2-(ACETYLAMINO)FLUORINE, Doses [Carcinogen]: DIET, Doses [Promoter]: IN DIET, Route [Carcinogen]: ORAL, Route [Promoter]: ORAL, Species: RAT, Strain/Sex: MALE) “liver”; (Carcinogen: 3,2'-DIMETHYL-4-AMINOBIPHENYL, 13394-86-0, Doses [Carcinogen]: 50 MG/KG IN CORN OIL 1/WK FOR 10 WK, Doses [Promoter]: 0, 1 ADMINISTERED TO 4 WK OLD RATS IN DIET FOR 11 WK BEGINNING 1 WK PRIOR TO CARCINOGEN (STUDY DURATION: 55 WK), Route [Carcinogen]: SUBCUTANEOUS, Route [Promoter]: ORAL, Species: RAT, Strain/Sex: F344/MALE) “bladder: carcinoma, papilloma”; (Carcinogen: 3-METHYLCHOLANTHRENE, 56-49-5, Doses [Carcinogen]: 10, 15, 25 UG/G ONCE, Doses [Carcinogen]: 10, 15, 25 UG/G ONCE, Doses [Promoter]: 0, 200 MG/KG 1/WK FOR 6 WK (STUDY DURATION: 20 WK), Route [Carcinogen]: INTRAPERITONEAL, Route [Promoter]: INTRAPERITONEAL, Species: MOUSE, Strain/Sex: BALB/CBYJ/FEMALE) “lung: tumor”; (Carcinogen: 3-METHYLCHOLANTHRENE, 56-49-5, Doses [Carcinogen]: 10 UG/G ONCE, Doses [Promoter]: 0, 200 MG/KG 1/WK FOR 6 WK (STUDY DURATION: 20 WK), Route [Carcinogen]: INTRAPERITONEAL, Route [Promoter]: INTRAPERITONEAL, Species: MOUSE, Strain/Sex: BALB/COLA/FEMALE) “lung: tumor”; (Carcinogen: METHYLNITROSOUREA, 684-93-5, Doses [Carcinogen]: 20 MG/KG 2/WK FOR 4 WK, Doses [Promoter]: 0, 1% IN DIET BEGINNING POST CARCINOGEN TREATMENT AND CONTINUING FOR 32 WK (STUDY DURATION: 36 WK), Route [Carcinogen]: INTRAPERITONEAL, Route [Promoter]: ORAL, Species: RAT, Strain/Sex: F344/MALE) “urinary bladder: papilloma, carcinoma; thyroid: adenoma”. Further, the outcome (Carcinogen: N,N-DIBUTYLNITROSAMINE, 924-16-3, Doses [Carcinogen]: 0.05% IN DRINKING WATER FOR 16 WK, Doses [Promoter]: 0, 0.7% IN DIET FOR 16 WK CONCOMITANT WITH CARCINOGEN TREATMENT (STUDY DURATION: 32 WK), Route [Carcinogen]: ORAL, Route [Promoter]: ORAL, Species: RAT, Strain/Sex: F344/MALE) was “liver: hepatocellular carcinoma”; the outcome (Carcinogen: N-BUTYL-N-(4-HYDROXYBUTYL)NITROSAMINE, 3817-11-6, Doses [Carcinogen]: 0.05% IN DRINKING WATER FOR 4 WK, Doses [Promoter]: 0, 1% IN DIET FOR 32 WK (STUDY DURATION: 36 WK), Route [Carcinogen]: ORAL, Route [Promoter]: ORAL, Species: RAT, Strain/Sex: F344/MALE) was “urinary bladder: papilloma, carcinoma”; the outcome (Carcinogen: N-BUTYL-N-(4-HYDROXYBUTYL)NITROSAMINE, Doses [Carcinogen]: 0.05% IN DRINKING WATER FOR 4 WK, Doses [Promoter]: 1% IN DIET FOR 32 WK AFTER INITIATION, Route [Carcinogen]: ORAL, Route [Promoter]: ORAL, Species: RAT, Strain/Sex: F344/MALE) is on record as “urinary bladder: carcinoma”; the outcome (Carcinogen: N-METHYL-N-NITROSOUREA, 684-93-5, Doses [Carcinogen]: 20 MG/KG 2/WK FOR 4 WK, Doses [Promoter]: 0, 1% IN DIET FOR 32 WK (STUDY DURATION: 36 WK), Route [Carcinogen]: INTRAPERITONEAL, Route [Promoter]: ORAL, Species: RAT, Strain/Sex: F344/MALE) is recorded as “thyroid gland: adenoma; urinary bladder: papilloma, carcinoma”; the outcome (Carcinogen: URETHANE, 51-79-6, Doses [Carcinogen]: 1 MG/G BW ONCE, Doses [Promoter]: 0, 200 MG/G BW 1/WK FOR 6 WK BEGINNING POST CARCINOGEN TREATMENT (STUDY DURATION: 20 WK), Route [Carcinogen]: INJECTION, Route [Promoter]: INJECTION, Species: MOUSE, Strain/Sex: BALB/MALE,FEMALE) is on record as “lung: tumor”; the outcome (Carcinogen: URETHANE, 51-79-6, Doses [Carcinogen]: 1 MG/G BW ONCE, Doses [Promoter]: 0, 200 MG/G BW 1/WK FOR 6 WK BEGINNING POST CARCINOGEN TREATMENT (STUDY DURATION: 20 WK), Route [Carcinogen]: INJECTION, Route [Promoter]: INJECTION, Species: MOUSE, Strain/Sex: GRS/MALE,FEMALE) is given as “lung: tumor”. Further, the outcome is recorded as “lung: tumor” (Carcinogen: URETHANE, 51-79-6, Doses [Carcinogen]: 1 MG/KG ONCE, Doses [Promoter]: 0, 200 MG/KG 1/WK FOR 6 WK (STUDY DURATION: 20 WK), Route [Carcinogen]: INTRAPERITONEAL, Route [Promoter]: INTRAPERITONEAL, Species: MOUSE, Strain/Sex: BALB/CBYJ/FEMALE); “lung: tumor (nos)” (Carcinogen: URETHANE, Doses [Carcinogen]: 1000 MG/KG ONCE, Doses [Promoter]: 0.10, 0.25, 0.50% IN DIET FOR 8 WK BEGINNING 24 HR AFTER INITIATION, Doses [Promoter]: 0.10, 0.25, 0.50% IN DIET FOR 8 WK BEGINNING 24 HR AFTER INITIATION, Route [Carcinogen]: INTRAPERITONEAL, Route [Promoter]: ORAL, Species: MOUSE, Strain/Sex: STRAIN-A/MALE); “lung” (Carcinogen: URETHANE, Doses [Carcinogen]: IP, Route [Carcinogen]: INTRAPERITONEAL, Route [Promoter]: INTRAPERITONEAL, Species: MOUSE, Strain/Sex: MALE).
Regarding `Cc1c(N(C)CS(=O)(=O)O)c(=O)n(-c2ccccc2)n1C`, the outcome (Carcinogen: DIETHYLNITROSAMINE, 55-18-5, Doses [Carcinogen]: 0.O1% IN DRINKING WATER FOR 2 WK, Doses [Promoter]: 0.4% IN DRINKING WATER 5 D/ WK FOR 72 WK BEGINNING 1 WK POST CARCINOGEN (STUDY DURATION: 83 WK), Route [Carcinogen]: ORAL, Route [Promoter]: ORAL, Species: RAT, Strain/Sex: F344/MALE) is on record as “liver neoplastic nodule, hepatocellular carcinoma ; kidney: adenoma”.
On to `O=C(O)/C=C/c1ccc(O)c(O)c1`, for which the outcome is, setting by setting: (Carcinogen: DIETHYLNITROSAMINE, 55-18-5, N-METHYLNITROSOUREA, 684-93-5, 1,2-DIMETHYLHYDRAZINE, 540-73-8, N-BUTYL-N-(4-HYDROXYBUTYL)N, Carcinogen: DIETHYLNITROSAMINE, 55-18-5, N-METHYLNITROSOUREA, 684-93-5, 1,2-DIMETHYLHYDRAZINE, 540-73-8, N-BUTYL-N-(4-HYDROXYBUTYL)N, Doses [Carcinogen]: 100 MG/KG BW DEN ONCE FOLLOWED BY 20 MG/KG BW MNU 2/WK FOR 2 WK THEN 40 MG/KG BW DMH 2/WK FOR THE NEXT 2WK, 0.05% BBN IN, Doses [Promoter]: 0, 0.4% IN DIET FOR 24 WK BEGINNING POST CARCINOGEN TREATMENT (STUDY DURATION: 28 WK), Route [Carcinogen]: INTRAPERITONEAL, INTRAPERITONEAL, SUBCUTANEOUS, ORAL, Route [Carcinogen]: INTRAPERITONEAL, INTRAPERITONEAL, SUBCUTANEOUS, ORAL, Route [Promoter]: ORAL, Species: RAT, Strain/Sex: F344/MALE) “forestomach: papilloma”; (Carcinogen: N-METHYL-N'-NITRO-N-NITROSOGUANIDINE, 70-25-7, Doses [Carcinogen]: 150 MG/KG BW IN 50% DMSO ONCE, Doses [Promoter]: 1% IN DIET BEGINNING 1 WK POST CARCINOGEN TREATMENT FOR 51 WK (STUDY DURATION: 52 WK), Route [Carcinogen]: GAVAGE, Route [Promoter]: ORAL, Species: RAT, Strain/Sex: F344/MALE) “forestomach: papilloma, squamous cell carcinoma”.
